Measurements from patent US20230277483A1, “COMPOSITIONS AND METHODS TO TREAT INFLAMMATION” (University of Iowa Research Foundation, priority 2022, published 2023).

Test system: DIO-mice (C57BL/6J on 60% kCal high-fat diet)
Test: Diet-induced obesity (DIO) mouse model, IP HCA
Assay type: in vivo
Description: Animal care and experimental procedures were performed with approval from the University of Iowa's Institutional Animal Care and Use Committee. Animals received humane care in compliance with the Guide for the Care and Use of Laboratory Animals (National Academies Press, 2011) and with the Principles of Laboratory Animal Care formulated by the National Society for Medical Research. C57BL/6J mice (The Jackson Laboratory, 000664) were kept on a 12-hour light/dark cycle. Mice used to generate the DIO model were placed on a 60% kCal high-fat diet (HFD, Research Diets, D12492) immediately after weaning (i.e., at 3 weeks of age). After 16 weeks, lean and DIO-mice were intraperitoneally (IP) injected with 0.5 uM HCA or PBS control every other day for three weeks. Body weight was measured weekly. All tissues were harvested, frozen in liquid nitrogen, and kept at −80° C. until processed.
Total RNA was isolated using TRIzol reagent (Invitrogen, 15-596-018) and reverse transcribed into cDNA using the iScript cDNA synthesis kit (Bio-Rad, 1708890). Quantitative real-time RT-PCR analysis was performed using SYBR Green (Invitrogen, KCQS00).
Proteins were extracted from cells or tissues and subjected to SDS-polyacrylamide gel electrophoresis, as previously described (Yang et al., 2015). Membranes were incubated with anti-p-AKT (Ser473, Cell Signaling, 9271); anti-AKT1 (H-136, Santa Cruz, sc-8312) or anti-ACTB (H-300, Santa Cruz, sc-10731) at 1:1000 and then incubated with the appropriate secondary antibody conjugated with horseradish peroxidase (1:5000, Santa Cruz, sc-2005 or 1:5000, Cell Signaling Technology, 7074S). Signal was detected using the ChemiDoc Touch Imaging System (Bio-Rad), and densitometric analyses of western blot images were performed using Image Lab software (Bio-Rad).
For immunohistochemistry, tissues were fixed with 4% PFA and sectioned at 5 μm thick, followed by deparaffinization and rehydration processes. Tissue sections were stained using H&E. The images were observed under a Nikon microscope (10×).
Blood samples were centrifuged (4° C., 5000 g, 30 min) to obtain serum. Ten microliters of serum per sample were required for each index analysis. Serum alanine aminotransferase (ALT) and aspartate aminotransferase (AST) were measured by commercial kits. Serum IL-1β, IL-6 and free fatty acid (FFA) content were measured by ELISA (Il-1beta, Biolegend, Cat No. 432604; Il6) or a FFA fluorometric kit (Cayman Chemical, No. 700310), respectively, and then normalized to total protein (BCA).
Whole-body energy expenditure and body composition: Respiratory exchange ratio (RER) and locomotor activity were monitored using a Comprehensive Lab Animal Monitoring System (CLAMS, Columbus Instruments) at the Fraternal Order of Eagles Metabolic Phenotypic Core. Body composition was measured by using Bruker Minispecs (LF50).
Animals were fasted for 6 hours prior to ITT. Insulin tolerance was tested by measuring glucose concentration at different time points after intraperitoneal (IP) insulin injection (0.5 U/kg body weight; Humulin R) (Qian et al., 2018).

SMILES: O=C(O)CCCCCO [HCA, 6-hydroxycaproic acid]
- liver expression of Atg1 and Cd36 (HCA vs HFD alone): increased expression
- liver expression of Hsl (HCA vs HFD alone): significantly reduced
- Serum free fatty acid (FFA) content (HCA vs HFD controls): reduced circulating levels
- fasting glucose (HFD-fed, HCA-treated): HFD-mediated effects were reduced
- pAKT in eWAT (insulin signaling) (HFD-fed, HCA-treated): increased pAKT
- insulin tolerance (ITT) (HFD-fed, HCA-treated, insulin 0.5 U/kg IP): HFD-mediated effects were reduced
- lean mass (HFD, 0.5 uM HCA IP every other day for three weeks): increased
- BW gain (HFD, 0.5 uM HCA IP every other day for three weeks, vs HFD group): significantly reduced
- eWAT RNA-seq: chemokine signaling and leukocyte migration (HFD, HCA): downregulated
- eWAT RNA-seq: fatty acid metabolism, oxidation and absorption, PPAR gamma and AMPK signaling (HFD, HCA): significantly increased
- liver Il1b transcript levels (HFD, HCA): significantly reduced
- serum IL-6, IL-1β, and leptin (HFD, HCA): reduced
- eWAT Adipoq and Ppargamma levels (HFD, HCA-treated): levels increased
- eWAT mRNA expression of Il6, Nos2 and Lep (HFD, HCA-treated): significantly reduced
- serum ALT levels (HFD, HCA-treated): reduced
- morphology of liver, iWAT and eWAT (H&E) (HFD, HCA-treated vs HFD alone): showed improvement
- activity (locomotor) (HFD, HCA-treated, CLAMS): increased activity
- respiratory exchange ratio (RER) (HFD, HCA-treated, CLAMS): shift in respiratory exchange ratio (RER) towards increased carbohydrate metabolism
- eWAT Cd36 and Gpr81 (compared to HFD controls): induced
- GPR137B, GPR176, GPR65, GPR85, and FABP7 in WAT (mRNA-seq) (obese mice treated with HCA): upregulation
- PPARγ in white adipose tissues (WAT) (obese mice, systemic administration of HCA): upregulation
